Test results taken from ChEMBL document CHEMBL5584237, “Design, synthesis, biological evaluation, and in silico studies of novel pyridopyridine derivatives as anticancer candidates targeting FMS kinase” (Eur J Med Chem, 2024).
Active and inactive are the calls of the source. The calls are words filed in the database; no cut-off is given here.

How the values were obtained:
SR = assay: Antiproliferative activity against human SR cells assessed as cell growth inhibition; format: functional
NCI-H460 = assay: Antiproliferative activity against human NCI-H460 cells assessed as cell growth inhibition; format: functional
HCT-116 = assay: Antiproliferative activity against human HCT-116 cells assessed as cell growth inhibition; format: functional
SW-620 = assay: Antiproliferative activity against human SW-620 cells assessed as cell growth inhibition; format: functional
SF-295 = assay: Antiproliferative activity against human SF-295 cells assessed as cell growth inhibition; format: functional
SF-539 = assay: Antiproliferative activity against human SF-539 cells assessed as cell growth inhibition; format: functional
SNB-75 = assay: Antiproliferative activity against human SNB-75 cells assessed as cell growth inhibition; format: functional
LOX IMVI = assay: Antiproliferative activity against human LOX IMVI cells assessed as cell growth inhibition; format: functional
M14 = assay: Antiproliferative activity against human M14 cells assessed as cell growth inhibition; format: functional
SK-MEL-28 = assay: Antiproliferative activity against human SK-MEL-28 cells assessed as cell growth inhibition; format: functional
CAKI-1 = assay: Antiproliferative activity against human CAKI-1 cells assessed as cell growth inhibition; format: functional
RXF 393 = assay: Antiproliferative activity against human RXF 393 cells assessed as cell growth inhibition; format: functional
SN12C = assay: Antiproliferative activity against human SN12C cells assessed as cell growth inhibition; format: functional
DU-145 = assay: Antiproliferative activity against human DU-145 cells assessed as cell growth inhibition; format: functional
MCF7 = assay: Antiproliferative activity against human MCF7 cells assessed as cell growth inhibition; format: functional
MDA-MB-468 = assay: Antiproliferative activity against human MDA-MB-468 cells assessed as cell growth inhibition; format: functional
[1] = Cytotoxicity against human HS27 cells assessed as reduction in cell growth measured after 48 hrs by MTT assay; format: toxicity, cell-based
[2] = Selectivity index, ratio of IC50 for human WI-38 cells to IC50 for human K562 cells; format: toxicity; conditions: WI-38 cells and K562 cells, read-out: Ratio IC50
[3] = Selectivity index, ratio of IC50 for human WI-38 cells to IC50 for human HCT-15 cells
[4] = Selectivity index, ratio of IC50 for human WI-38 cells to IC50 for human HT-29 cells; format: toxicity; conditions: WI-38 cells and HT-29 cells, read-out: Ratio IC50
[5] = Selectivity index, ratio of IC50 for human WI-38 cells to IC50 for human SF-295 cells
[6] = Selectivity index, ratio of IC50 for human WI-38 cells to IC50 for human LOX IMVI cells
[7] = Selectivity index, ratio of IC50 for human WI-38 cells to IC50 for human SK-MEL-28 cells
[8] = Selectivity index, ratio of IC50 for human WI-38 cells to IC50 for human OVCAR-3 cells
[9] = Selectivity index, ratio of IC50 for human WI-38 cells to IC50 for human OVCAR-4 cells
[10] = Selectivity index, ratio of IC50 for human WI-38 cells to IC50 for human 786-0 cells
[11] = Selectivity index, ratio of IC50 for human WI-38 cells to IC50 for human CAKI-1 cells
[12] = Selectivity index, ratio of IC50 for human WI-38 cells to IC50 for human DU-145 cells
[13] = Selectivity index, ratio of IC50 for human WI-38 cells to IC50 for human MDA-MB-231 cells; format: toxicity; conditions: WI-38 cells and MDA-MB-231 cells, read-out: Ratio IC50
[14] = Selectivity index, ratio of IC50 for human HS27 cells to IC50 for human CCRF-CEM cells
[15] = Selectivity index, ratio of IC50 for human HS27 cells to IC50 for human K562 cells
[16] = Selectivity index, ratio of IC50 for human HS27 cells to IC50 for human MOLT-4 cells
[17] = Selectivity index, ratio of IC50 for human HS27 cells to IC50 for human SR cells
[18] = Selectivity index, ratio of IC50 for human HS27 cells to IC50 for human A549 cells
[19] = Selectivity index, ratio of IC50 for human HS27 cells to IC50 for human HCT-116 cells
[20] = Selectivity index, ratio of IC50 for human HS27 cells to IC50 for human SNB-75 cells
[21] = Selectivity index, ratio of IC50 for human HS27 cells to IC50 for human M14 cells
[22] = Selectivity index, ratio of IC50 for human HS27 cells to IC50 for human SK-MEL-28 cells
[23] = Selectivity index, ratio of IC50 for human HS27 cells to IC50 for human OVCAR-3 cells
[24] = Selectivity index, ratio of IC50 for human HS27 cells to IC50 for human OVCAR-4 cells
[25] = Selectivity index, ratio of IC50 for human HS27 cells to IC50 for human CAKI-1 cells
[26] = Selectivity index, ratio of IC50 for human HS27 cells to IC50 for human DU-145 cells
[27] = Selectivity index, ratio of IC50 for human HS27 cells to IC50 for human MCF7 cells
Hep 3B2 [28] = assay: Induction of apoptosis in human Hep3B cells assessed as increase in cleaved PARP expression at 3.38 uM measured after 48 hrs by Western blot analysis relative to control; format: functional
Hep 3B2 [29] = assay: Induction of apoptosis in human Hep3B cells assessed as increase in cleaved caspase-3 expression at 3.38 uM measured after 48 hrs by Western blot analysis relative to control; format: functional
Hep 3B2 [30] = assay: Cell cycle arrest in human Hep3B cells assessed as downregulation of cyclin D1 expression at 3.38 uM measured after 48 hrs by Western blot analysis; format: functional, cell-based
Hep 3B2 [31] = assay: Cell cycle arrest in human Hep3B cells assessed as upregulation of cyclin B1 expression at 0.5 x IC50 to IC50 measured after 48 hrs by Western blot analysis; format: functional, cell-based
in vitro = conditions: human, WI-38 cells and A549 cells
Description: Selectivity index, ratio of IC50 for human WI-38 cells to IC50 for human A549 cells

GI50 (NCI-H460): 620 nM
GI50 (HCT-116): 640 nM
GI50 (SW-620): 640 nM
GI50 (SK-MEL-28): 750 nM
GI50 (DU-145): 750 nM
GI50 (MCF7): 630 nM
GI50 (MDA-MB-468): 770 nM
SMILES: CCN1CCN(c2ccc(NC(=O)Nc3ccc(-c4cc(C(=O)NC(C)C)c5ncccc5n4)cc3)cc2C(F)(F)F)CC1
TGI (SR): 12.1 µM
TGI (NCI-H460): 1180 nM
TGI (HCT-116): 1300 nM
TGI (SW-620): 1260 nM
GI50 (SF-295): 580 nM
TGI (SF-295): 1140 nM
GI50 (SF-539): 530 nM
TGI (SF-539): 1020 nM
GI50 (SNB-75): 980 nM
TGI (SNB-75): 5.14 µM
GI50 (LOX IMVI): 560 nM
TGI (LOX IMVI): 1050 nM
GI50 (M14): 720 nM
TGI (M14): 1900 nM
TGI (SK-MEL-28): 1850 nM
GI50 (CAKI-1): 800 nM
TGI (CAKI-1): 2080 nM
GI50 (RXF 393): 650 nM
TGI (RXF 393): 1730 nM
GI50 (SN12C): 670 nM
TGI (SN12C): 1380 nM
TGI (DU-145): 1580 nM
TGI (MCF7): 1500 nM
TGI (MDA-MB-468): 1850 nM
IC50 at 48 h [1]: 8.4 µM
selectivity ratio [2]: 15.4
Ratio IC50 [3]: 18.84
selectivity ratio [4]: 18.8
Ratio IC50 [5]: 8.71
Ratio IC50 [6]: 8.62
Ratio IC50 [7]: 8.62
Ratio IC50 [8]: 5.89
Ratio IC50 [9]: 5.89
Ratio IC50 [10]: 10.52
Ratio IC50 [11]: 10.52
Ratio IC50 [12]: 21.6
selectivity ratio [13]: 10.1
Ratio IC50 [14]: 8
Ratio IC50 [15]: 8
Ratio IC50 [16]: 8
Ratio IC50 [17]: 8
Ratio IC50 [18]: 3.32
Ratio IC50 [19]: 9.77
Ratio IC50 [20]: 4.52
Ratio IC50 [21]: 4.47
Ratio IC50 [22]: 4.47
Ratio IC50 [23]: 3.05
Ratio IC50 [24]: 3.05
Ratio IC50 [25]: 5.45
Ratio IC50 [26]: 11.2
Ratio IC50 [27]: 5.22
fold change (FC) (Hep 3B2 [28]): 27
fold change (FC) (Hep 3B2 [29]): 473.5
Activity (Hep 3B2 [30]): Active
Activity (Hep 3B2 [31]): inactive
selectivity ratio (in vitro): 6.4
